Experiment [1] has as its target anti-GD1b IgG antibodies of neuropathy patient serum. The experiment can be described thus: Competitive binding ELISA (GanglioCombi), GD1b-coated wells, patient serum IgG. The arrangement: species or system human. Particulars: serum P22 (IgG), dilution 1:50; table prints GD1a (IgG). Here is the method:
(§1) The synthesized carbohydrate polymers 6 (GM1a epitope), 26 (GD1b epitope), and 34 (GT1a epitope) were tested in the GanglioCombi(-Light) ELISA and/or, in case of compound 6, the anti-GM1 ELISA (all kits from Bühlmann Laboratories, Schönenbuch, Switzerland). The 96 well microtiter plates coated with purified gangliosides from bovine cauda equina were washed two times with washing buffer (300 μl/well) before adding the carbohydrate polymers in eight different concentrations, 25 μl/well. The patient sera containing anti-ganglioside IgG or IgM antibodies were added in the appropriate dilutions, 25 μl/well (2× concentrated), to obtain a total of 50 μl volume per well. […] Finally, a stop solution (0.25 M sulfuric acid) was added (100 μl/well) and the degree of colorimetric reaction was determined by absorption measurement at 450 nm with a microplate reader (Spectramax 190, Molecular Devices, California, USA).
(§2) As indicated, the synthesized carbohydrate polymers 6 (GM1a epitope), 26 (GD1b epitope), and 34 (GT1a epitope) were tested in the GanglioCombi(-Light) ELISA and/or, in case of compound 6, the anti-GM1 ELISA (all kits from Bühlmann Laboratories, Schönenbuch, Switzerland). […] After a washing step ganglioside-bound antibodies (IgM/IgG) were detected with horseradish peroxidase labeled anti-human IgM or anti-human IgG antibodies, followed by a colorimetric reaction. […]
(In general: In an ELISA, binding on a coated surface is turned into a signal by an enzyme label.)

In experiment [2] the test system is anti-GM1a IgG antibodies of neuropathy patient sera. The experiment can be described thus: Competitive binding ELISA (GanglioCombi/anti-GM1), GM1a-coated wells, patient sera IgG. Also noted: species or system human. The method, then:
as §1, §2

Experiment [3] concerns anti-GM1a IgM antibodies of neuropathy patient sera. The experiment can be described thus: Competitive binding ELISA (GanglioCombi/anti-GM1), GM1a-coated wells, patient sera IgM. The arrangement: species or system human. Here is the method: as §1, §2
In experiment [4] the test system is anti-GQ1b IgG antibodies of neuropathy patient sera. Description: Competitive binding ELISA (GanglioCombi), GQ1b-coated wells, patient sera IgG. The arrangement: species or system human. The method, then: The synthesized carbohydrate polymers 6 (GM1a epitope), 26 (GD1b epitope), and 34 (GT1a epitope) were tested in the GanglioCombi(-Light) ELISA and/or, in case of compound 6, the anti-GM1 ELISA (all kits from Bühlmann Laboratories, Schönenbuch, Switzerland). The 96 well microtiter plates coated with purified gangliosides from bovine cauda equina were washed two times with washing buffer (300 μl/well) before adding the carbohydrate polymers in eight different concentrations, 25 μl/well. The patient sera containing anti-ganglioside IgG or IgM antibodies were added in the appropriate dilutions, 25 μl/well (2× concentrated), to obtain a total of 50 μl volume per well. The plate was covered with a plate sealer and incubated for 2 h at 4-8° C. The wells were washed three times with wash buffer (300 μl/well) before either the anti-human IgM antibody-horseradish peroxidase conjugate or the anti-human IgG antibody-horseradish peroxidase conjugate was added (100 μl/well). The plate was incubated for 2 h at 4-8° C. […] Finally, a stop solution (0.25 M sulfuric acid) was added (100 μl/well) and the degree of colorimetric reaction was determined by absorption measurement at 450 nm with a microplate reader (Spectramax 190, Molecular Devices, California, USA).
As indicated, the synthesized carbohydrate polymers 6 (GM1a epitope), 26 (GD1b epitope), and 34 (GT1a epitope) were tested in the GanglioCombi(-Light) ELISA and/or, in case of compound 6, the anti-GM1 ELISA (all kits from Bühlmann Laboratories, Schönenbuch, Switzerland). […] After a washing step ganglioside-bound antibodies (IgM/IgG) were detected with horseradish peroxidase labeled anti-human IgM or anti-human IgG antibodies, followed by a colorimetric reaction. Successful competition of the compounds with gangliosides led to a decrease in measured OD450 nm, (optical density), because they block the binding sites of anti-ganglioside antibodies, preventing their binding to immobilized gangliosides. […] IgG and IgM antibody titers were determined for each serum in preliminary experiments. […]

Experiment [5] concerns mouse monoclonal anti-HNK-1 (anti-MAG) IgM antibody. The experiment can be described thus: Competitive binding anti-MAG ELISA, MAG-coated wells. The method, then: (§3) The synthesized carbohydrate polymer 86 (HNK-1 epitope mimetic 58) was tested in the anti-MAG ELISA (kit from Bühlmann Laboratories, Schönenbuch, Switzerland). The assay protocol was performed according to the one described above for the GanglioCombi(-Light) ELISA. To determine the in vitro IC50 of polymer 86, the assay was performed with co-incubation of polymer (25 μl/well) and a mouse monoclonal anti-HNK-1 (anti-MAG) IgM antibody (25 μl/well) at a final dilution of 1:1000. To determine the in vivo efficacy of polymer 86, the assay was performed by incubation of mouse plasma diluted 1:100 (50 μl/well). Both, the mouse monoclonal anti-HNK-1 (anti-MAG) IgM and anti-HNK-1 (anti-MAG) IgM in plasma of immunized BALB/c mice (pre- and post-treatment) were detected with goat anti-mouse IgM HRP conjugate (Sigma Aldrich, A8786) diluted 1:10′000.

Experiment [6] relates to anti-HNK-1 (anti-MAG) IgM antibodies. The experiment can be described thus: Immunological mouse model for anti-MAG neuropathy. The class given is in vivo. Particulars: immunized BALB/c mice, 10 mg/kg intravenous, up to 168 h (seven days) after administration. The method, then: as §3
Six gender matched BALB/c wild type mice at the age of 6 weeks were injected subcutaneously at multiple sites on the lower back with a total of 100 μg of the glycosphingolipids SGPG and SGLPG purified from bovine cauda equina (both glycolipids contain the HNK-1 carbohydrate epitope). The isolation of glycolipids was performed according to a protocol described by Burger et al. (Journal of Immunological Methods 1991, 140, 31-36). […] Mouse plasma samples were analyzed by the above described anti-MAG ELISA.

“Also recorded” adds a separate entry of the source.

As for GD1b Polymer [Compound 26], the IC50 in experiment [1] was 313 µM.

Turning to GM1a Polymer [Compound 6], the IC50 in experiment [2] (serum P21, GM1a (IgG), dilution 1:1'300) was 0.219 µM; in experiment [2] (serum PP IgG Pos., GM1a (IgG), dilution 1:1'200), 28 µM; in experiment [3] (serum P3, GM1a (IgM), dilution 1:50), 375 nM; in experiment [3] (serum P4, GM1a (IgM), dilution 1:400), 0.0594 nM.

With GT1a Polymer [Polymer 34], the “neutralization of patient sera directed against GQ1b” value in experiment [4] (sera EK-GCO 1803 (IgG) and P23 (IgG)) is recorded as “neutralized”. The IC50 amounted to 12.5 µM in experiment [4] (serum EK-GCO 1803, GQ1b/GT1a (IgG), dilution 1:300) and 348 µM in experiment [4] (serum P23, GQ1b/GT1a (IgG), dilution 1:50).

Consider HNK-1 Polymer [Compound 86], for which, in experiment [5], the “inhibition of binding of mouse monoclonal anti-HNK-1 IgM to the HNK-1 epitope on MAG” value is given as “nanomolar concentrations”. In addition, the IC50 in experiment [5] (mouse anti-HNK-1 antibody, HNK-1 (IgM), final dilution 1:1000) is 0.0513 ± 0.0442 µM. Also, the “reduction of anti-HNK-1 (anti-MAG) IgM antibody levels” value in experiment [6] was “significantly reduced; also recorded: significant reduction”.

A word on the IC50: it is the midpoint of a concentration-inhibition curve. A higher IC50 goes with weaker potency in that assay.
